# Assay results: article PMC6017193, “Structure-Based Discovery of a Series of 5H-Pyrrolo[2,3-b]pyrazine FGFR Kinase Inhibitors” (Molecules : A Journal of Synthetic Chemistry and Natural …, 2018)
# How the values were obtained:
# Assay type in all cases: biochemical
# [1] = target: PDGFR-β (Homo sapiens, UniProt P09619); assay: Kinase panel profiling
# [2] = target: IGF1R (Homo sapiens, UniProt P08069); assay: Kinase panel profiling
# [3] = target: FGFR3 (Homo sapiens, UniProt P22607); assay: Kinase panel profiling
# [4] = target: EGFR (Homo sapiens, UniProt P00533); assay: Kinase panel profiling
# [5] = target: Abl (Homo sapiens, UniProt P00519); assay: Kinase panel profiling
# [6] = target: PDGFR-α (Homo sapiens, UniProt P16234); assay: Kinase panel profiling
# PDGFR-α, sequence (P16234 24-1089, species assumed): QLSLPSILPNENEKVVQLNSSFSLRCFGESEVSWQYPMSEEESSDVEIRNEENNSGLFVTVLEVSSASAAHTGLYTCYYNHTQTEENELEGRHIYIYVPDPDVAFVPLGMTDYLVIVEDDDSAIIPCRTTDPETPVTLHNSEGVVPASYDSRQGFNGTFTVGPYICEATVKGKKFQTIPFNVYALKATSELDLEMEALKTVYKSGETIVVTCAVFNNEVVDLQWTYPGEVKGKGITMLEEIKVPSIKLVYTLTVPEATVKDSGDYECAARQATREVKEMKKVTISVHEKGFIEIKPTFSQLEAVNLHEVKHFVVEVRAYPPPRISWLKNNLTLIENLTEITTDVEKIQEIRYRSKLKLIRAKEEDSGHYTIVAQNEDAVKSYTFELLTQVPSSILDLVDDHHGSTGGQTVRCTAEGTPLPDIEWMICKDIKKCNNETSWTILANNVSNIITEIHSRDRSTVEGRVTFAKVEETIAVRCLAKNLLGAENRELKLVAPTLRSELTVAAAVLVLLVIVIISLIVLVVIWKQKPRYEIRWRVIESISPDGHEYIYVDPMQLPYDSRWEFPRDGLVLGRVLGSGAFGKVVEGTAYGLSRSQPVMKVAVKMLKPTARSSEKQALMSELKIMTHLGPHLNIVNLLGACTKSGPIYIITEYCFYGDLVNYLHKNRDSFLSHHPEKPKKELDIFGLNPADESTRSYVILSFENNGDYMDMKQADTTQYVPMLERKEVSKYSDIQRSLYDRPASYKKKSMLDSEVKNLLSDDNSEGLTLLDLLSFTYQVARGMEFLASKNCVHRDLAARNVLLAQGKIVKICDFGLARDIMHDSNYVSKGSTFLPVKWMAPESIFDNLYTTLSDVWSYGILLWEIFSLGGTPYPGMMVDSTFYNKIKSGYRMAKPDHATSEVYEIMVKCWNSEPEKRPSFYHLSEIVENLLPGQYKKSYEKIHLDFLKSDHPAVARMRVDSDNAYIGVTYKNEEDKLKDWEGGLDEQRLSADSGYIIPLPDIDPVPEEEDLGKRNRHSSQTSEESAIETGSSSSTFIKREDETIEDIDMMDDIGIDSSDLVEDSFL
# [7] = target: T1, FGFR1 (Homo sapiens, UniProt P11362); assay: ELISA kinase assay, FGFR1 enzymatic activity
# T1 construct: purchased Millipore
# Procedure: The effects of compounds on the activities of indicated (FGFR1 and c-Met) kinases were determined using enzyme-linked immunosorbent assays (ELISAs) with purified recombinant proteins. Briefly, 20 μg/mL poly (Glu, Tyr)4:1 (Sigma, St. Louis, MO, USA) was precoated in 96-well plates as a substrate. A 50-μL aliquot of 10 μmol/L ATP solution diluted in kinase reaction buffer (50 mmol/L HEPES (pH 7.4), 50 mmol/L MgCl2, 0.5 mmol/L MnCl2, 0.2 mmol/L Na3VO4, and 1 mmol/L DTT) was added to each well; 1 μL of various concentrations of compounds diluted in 1% DMSO (v/v) (Sigma) were then added to each reaction well. DMSO (1%, v/v) was used as the negative control. The kinase reaction was initiated by the addition of purified tyrosine kinase proteins FGFR1 (Millipore, Darmstadt, Germany) or c-Met (Millipore) diluted in 49 μL of kinase reaction buffer. After incubation for 60 min at 37 °C, the plate was washed three times with phosphate-buffered saline (PBS) containing 0.1% Tween 20 (T-PBS). Anti-phosphotyrosine (PY99) antibody (Sanra Cruz, Dallas, TX, USA) (100 μL; 1:500, diluted in 5 mg/mL bovine serum albumin (BSA) T-PBS) was then added. After a 30-min incubation at 37 °C, the plate was washed three times, and 100 μL of horseradish peroxidase-conjugated goat anti-mouse IgG (Calbiochem, Shanghai, China) (1:2000, diluted in 5 mg/mL BSA T-PBS) was added. The plate was then incubated at 37 °C for 30 min, and washed three times. A 100-μL aliquot of a solution containing 0.03% H2O2 and 2 mg/mL o-phenylenediamine in 0.1 mol/L citrate buffer (pH 5.5) was added. The reaction was terminated by the addition of 50 μL of 2 mol/L H2SO4 as the color changed, and the plate was analyzed using a multi-well spectrophotometer (SpectraMAX 190, Molecular Devices, Palo Alto, CA, USA) at 490 nm. The inhibition rate (%) was calculated using the following equation:IR = [1 − (A490/A490control)] × 100%.(1) where IR, A490, and A490control are the inhibition rate, the absorbance value of the tested compound at 490 nm, and the absorbance value of the negative control compound at 490 nm, respectively. The IC50 values were calculated from the inhibition curves in two separate experiments.
# [8] = target: ROS1 (Homo sapiens, UniProt P08922); assay: Kinase panel profiling
# [9] = target: EPH-A2 (Homo sapiens, UniProt P29317); assay: Kinase panel profiling
# [10] = target: KDR (Homo sapiens, UniProt P35968); assay: Kinase panel profiling
# KDR, sequence (P35968 20-1356, species assumed): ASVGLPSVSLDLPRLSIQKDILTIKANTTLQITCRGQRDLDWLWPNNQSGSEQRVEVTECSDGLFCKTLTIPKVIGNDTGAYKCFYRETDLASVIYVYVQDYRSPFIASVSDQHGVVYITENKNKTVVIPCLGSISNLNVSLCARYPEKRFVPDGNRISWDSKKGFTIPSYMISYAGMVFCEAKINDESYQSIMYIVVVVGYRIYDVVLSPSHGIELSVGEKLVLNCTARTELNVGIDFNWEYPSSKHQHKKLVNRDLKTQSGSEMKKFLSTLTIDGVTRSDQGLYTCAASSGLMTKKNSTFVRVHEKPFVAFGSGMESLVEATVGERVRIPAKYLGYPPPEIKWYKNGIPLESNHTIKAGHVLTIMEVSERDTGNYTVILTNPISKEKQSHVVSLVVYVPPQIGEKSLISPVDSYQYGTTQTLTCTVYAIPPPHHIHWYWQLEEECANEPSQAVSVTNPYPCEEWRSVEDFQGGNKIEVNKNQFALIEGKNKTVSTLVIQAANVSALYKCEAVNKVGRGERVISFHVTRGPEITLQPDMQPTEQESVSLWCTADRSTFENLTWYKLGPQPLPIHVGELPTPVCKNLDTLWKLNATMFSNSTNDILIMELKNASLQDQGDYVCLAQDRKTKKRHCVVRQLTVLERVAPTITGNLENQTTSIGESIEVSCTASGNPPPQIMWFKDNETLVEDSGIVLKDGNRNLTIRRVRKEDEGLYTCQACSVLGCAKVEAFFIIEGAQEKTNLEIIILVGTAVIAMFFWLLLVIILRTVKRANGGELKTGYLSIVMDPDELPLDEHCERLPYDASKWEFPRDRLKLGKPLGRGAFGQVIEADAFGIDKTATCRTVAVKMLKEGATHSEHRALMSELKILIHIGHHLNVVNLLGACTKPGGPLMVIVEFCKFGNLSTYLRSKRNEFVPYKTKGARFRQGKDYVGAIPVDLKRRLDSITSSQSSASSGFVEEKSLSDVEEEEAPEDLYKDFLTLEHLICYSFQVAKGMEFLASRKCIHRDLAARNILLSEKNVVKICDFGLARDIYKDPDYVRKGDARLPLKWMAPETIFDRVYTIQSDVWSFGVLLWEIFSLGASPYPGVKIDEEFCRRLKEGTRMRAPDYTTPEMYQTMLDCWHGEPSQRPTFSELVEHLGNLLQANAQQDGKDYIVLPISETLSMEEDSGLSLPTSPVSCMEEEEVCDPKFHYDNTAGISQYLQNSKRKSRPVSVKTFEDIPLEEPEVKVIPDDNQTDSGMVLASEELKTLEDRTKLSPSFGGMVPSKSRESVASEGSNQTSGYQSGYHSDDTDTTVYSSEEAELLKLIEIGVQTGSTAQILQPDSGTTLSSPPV
# [11] = target: ErbB4 (Homo sapiens, UniProt Q15303); assay: Kinase panel profiling
# [12] = target: T2, DDR2 (Homo sapiens, UniProt Q16832); assay: Kinase panel profiling
# T2 sequence (Q16832 22-855): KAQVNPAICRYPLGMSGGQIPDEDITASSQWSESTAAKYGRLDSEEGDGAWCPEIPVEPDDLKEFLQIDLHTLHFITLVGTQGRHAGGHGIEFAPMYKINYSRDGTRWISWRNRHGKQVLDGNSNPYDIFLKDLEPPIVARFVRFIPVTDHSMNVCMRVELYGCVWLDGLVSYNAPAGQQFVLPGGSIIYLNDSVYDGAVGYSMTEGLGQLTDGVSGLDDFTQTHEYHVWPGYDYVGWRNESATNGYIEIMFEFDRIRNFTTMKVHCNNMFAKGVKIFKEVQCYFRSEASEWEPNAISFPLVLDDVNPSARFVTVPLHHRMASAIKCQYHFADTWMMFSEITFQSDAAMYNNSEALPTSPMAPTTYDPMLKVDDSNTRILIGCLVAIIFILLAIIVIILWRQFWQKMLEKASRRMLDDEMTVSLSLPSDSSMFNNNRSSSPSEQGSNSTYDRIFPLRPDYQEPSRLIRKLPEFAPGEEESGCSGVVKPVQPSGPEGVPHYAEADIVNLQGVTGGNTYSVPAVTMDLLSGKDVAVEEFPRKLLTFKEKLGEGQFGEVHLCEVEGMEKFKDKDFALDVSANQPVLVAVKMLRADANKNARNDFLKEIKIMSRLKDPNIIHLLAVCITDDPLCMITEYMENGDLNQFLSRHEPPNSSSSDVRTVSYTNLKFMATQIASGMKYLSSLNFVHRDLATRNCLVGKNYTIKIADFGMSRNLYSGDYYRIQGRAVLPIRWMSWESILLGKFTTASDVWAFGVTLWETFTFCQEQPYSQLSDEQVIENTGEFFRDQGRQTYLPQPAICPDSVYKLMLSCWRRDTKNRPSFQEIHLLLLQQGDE
# IGF1R, sequence (P08069 31-1367, species assumed): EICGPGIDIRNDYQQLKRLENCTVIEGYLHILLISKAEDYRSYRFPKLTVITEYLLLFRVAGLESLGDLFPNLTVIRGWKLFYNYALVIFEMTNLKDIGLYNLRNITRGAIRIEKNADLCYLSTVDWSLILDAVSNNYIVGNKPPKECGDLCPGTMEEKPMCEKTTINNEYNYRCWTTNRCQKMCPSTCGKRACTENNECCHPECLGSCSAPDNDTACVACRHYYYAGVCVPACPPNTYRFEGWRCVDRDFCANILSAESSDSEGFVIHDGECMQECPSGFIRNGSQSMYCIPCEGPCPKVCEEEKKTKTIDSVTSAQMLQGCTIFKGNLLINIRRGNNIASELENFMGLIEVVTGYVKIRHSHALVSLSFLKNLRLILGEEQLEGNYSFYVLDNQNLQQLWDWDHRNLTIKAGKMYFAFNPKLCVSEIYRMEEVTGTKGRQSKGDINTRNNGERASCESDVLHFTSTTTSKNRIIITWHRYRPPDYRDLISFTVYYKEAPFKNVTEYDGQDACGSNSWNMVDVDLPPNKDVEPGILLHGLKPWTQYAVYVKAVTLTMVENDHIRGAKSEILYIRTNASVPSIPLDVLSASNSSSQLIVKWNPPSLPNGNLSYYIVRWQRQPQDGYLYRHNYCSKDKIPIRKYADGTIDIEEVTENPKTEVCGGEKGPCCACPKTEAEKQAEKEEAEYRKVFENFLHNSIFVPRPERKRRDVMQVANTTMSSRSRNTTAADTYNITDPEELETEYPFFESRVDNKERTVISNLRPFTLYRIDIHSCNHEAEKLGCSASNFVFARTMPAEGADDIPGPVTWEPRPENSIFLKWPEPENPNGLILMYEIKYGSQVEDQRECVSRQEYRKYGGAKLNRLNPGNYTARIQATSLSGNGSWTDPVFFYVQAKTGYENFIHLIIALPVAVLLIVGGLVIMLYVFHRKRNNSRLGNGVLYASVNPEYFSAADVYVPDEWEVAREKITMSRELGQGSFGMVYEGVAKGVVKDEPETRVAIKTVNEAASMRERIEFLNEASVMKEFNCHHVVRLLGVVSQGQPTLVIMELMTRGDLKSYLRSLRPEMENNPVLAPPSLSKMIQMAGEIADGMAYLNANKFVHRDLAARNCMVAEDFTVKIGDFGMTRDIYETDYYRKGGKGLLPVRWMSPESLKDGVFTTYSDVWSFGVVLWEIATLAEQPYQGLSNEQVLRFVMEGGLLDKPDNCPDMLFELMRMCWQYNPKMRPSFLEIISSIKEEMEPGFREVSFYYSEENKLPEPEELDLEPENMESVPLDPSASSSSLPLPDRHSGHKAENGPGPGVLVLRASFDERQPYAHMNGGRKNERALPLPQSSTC
# PDGFR-β, sequence (P09619 33-1106, species assumed): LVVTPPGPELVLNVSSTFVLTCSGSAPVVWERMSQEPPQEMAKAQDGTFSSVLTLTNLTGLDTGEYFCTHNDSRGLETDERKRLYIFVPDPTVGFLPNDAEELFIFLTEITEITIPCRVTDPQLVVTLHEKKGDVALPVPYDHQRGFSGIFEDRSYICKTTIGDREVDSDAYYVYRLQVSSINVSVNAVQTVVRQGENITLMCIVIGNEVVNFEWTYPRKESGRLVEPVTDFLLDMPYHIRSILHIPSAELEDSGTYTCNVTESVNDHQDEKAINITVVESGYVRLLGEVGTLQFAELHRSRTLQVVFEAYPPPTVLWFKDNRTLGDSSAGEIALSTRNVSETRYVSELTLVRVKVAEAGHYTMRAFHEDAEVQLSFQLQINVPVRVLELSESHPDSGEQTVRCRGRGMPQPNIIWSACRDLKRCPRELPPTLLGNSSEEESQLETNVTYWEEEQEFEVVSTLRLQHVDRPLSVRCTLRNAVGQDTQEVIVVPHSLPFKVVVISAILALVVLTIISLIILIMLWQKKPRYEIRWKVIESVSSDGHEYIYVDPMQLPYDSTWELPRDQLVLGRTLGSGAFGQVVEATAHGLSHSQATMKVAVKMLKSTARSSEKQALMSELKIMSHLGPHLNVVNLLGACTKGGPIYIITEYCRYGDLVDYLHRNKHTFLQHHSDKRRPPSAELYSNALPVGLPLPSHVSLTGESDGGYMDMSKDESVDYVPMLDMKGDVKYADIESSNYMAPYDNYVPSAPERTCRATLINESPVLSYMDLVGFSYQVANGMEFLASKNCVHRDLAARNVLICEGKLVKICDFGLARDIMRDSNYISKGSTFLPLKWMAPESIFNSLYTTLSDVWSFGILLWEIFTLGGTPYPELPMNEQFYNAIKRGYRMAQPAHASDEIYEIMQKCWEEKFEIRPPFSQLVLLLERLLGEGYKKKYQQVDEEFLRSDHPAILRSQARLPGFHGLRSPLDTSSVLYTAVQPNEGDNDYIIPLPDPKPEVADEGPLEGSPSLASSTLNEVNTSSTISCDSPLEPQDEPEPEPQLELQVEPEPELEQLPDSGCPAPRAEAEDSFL
smiles,measurement,setting,value
"O=S(=O)(c1cn(CCF)cn1)n1ccc2ncc(-c3cn[nH]c3)nc21 [Compound 13, 5-((1-(2-fluoroethyl)-1H-imidazol-4-yl)sulfonyl)-3-(1H-pyrazol-4-yl)-5H-pyrrolo[2,3-b]pyrazine]",inhibition at 0.01 µM,[1]; 10 nM,12.8%
same,inhibition at 0.1 µM,[1]; 100 nM,30.1%
same,inhibition at 1 µM,[1]; 1000 nM,58.6%
same,inhibition at 0.01 µM,[2]; 10 nM,-3.8%
same,inhibition at 0.1 µM,[2]; 100 nM,3%
same,inhibition at 1 µM,[2]; 1000 nM,11.8%
same,inhibition at 0.01 µM,[3]; 10 nM,42.9%
same,inhibition at 0.1 µM,[3]; 100 nM,79%
same,inhibition at 1 µM,[3]; 1000 nM,88.9%
same,inhibition at 0.01 µM,[4]; 10 nM,0%
same,inhibition at 0.1 µM,[4]; 100 nM,0%
same,inhibition at 1 µM,[4]; 1000 nM,0%
same,inhibition at 0.01 µM,[5]; 10 nM,0%
same,inhibition at 0.1 µM,[5]; 100 nM,0%
same,inhibition at 1 µM,[5]; 1000 nM,0%
same,inhibition at 0.01 µM,[6]; 10 nM,21.9%
same,inhibition at 0.1 µM,[6]; 100 nM,20.9%
same,inhibition at 1 µM,[6]; 1000 nM,23.2%
same,inhibition at 0.01 µM,"[7]; 0.01 μM (10 nM), mean of two separate experiments",> 90%
same,inhibition at 0.1 µM,"[7]; 0.1 μM, mean of two separate experiments",91.7%
same,inhibition at 1 µM,"[7]; 1 μM, mean of two separate experiments",100%
same,IC50,[7]; mean ± SD from two separate experiments,0.6 ± 0.2 nM
same,inhibition at 0.01 µM,[8]; 10 nM,-3.8%
same,inhibition at 0.1 µM,[8]; 100 nM,3%
same,inhibition at 1 µM,[8]; 1000 nM,11.8%
same,inhibition at 0.01 µM,[9]; 10 nM,0%
same,inhibition at 0.1 µM,[9]; 100 nM,0%
same,inhibition at 1 µM,[9]; 1000 nM,0%
same,inhibition at 0.01 µM,[10]; 10 nM,7.4%
same,inhibition at 0.1 µM,[10]; 100 nM,17.1%
same,inhibition at 1 µM,[10]; 1000 nM,46.3%
same,inhibition at 0.01 µM,[11]; 10 nM,0%
same,inhibition at 0.1 µM,[11]; 100 nM,0%
same,inhibition at 1 µM,[11]; 1000 nM,3%
same,inhibition at 0.01 µM,[12]; 10 nM,3.6%
same,inhibition at 0.1 µM,[12]; 100 nM,0.9%
same,inhibition at 1 µM,[12]; 1000 nM,4.6%
